According to patent publication US7851475B2, “Substituted pyrrole-2, 5-diones as protein kinase C inhibitors” (Novartis AG, priority 2004, dated 2010):

How the values were obtained:
[1] = molecular target: Human recombinant PKCθ (Homo sapiens, UniProt Q04759); experiment: Protein Kinase C θ Assay
Method: The compounds of the invention are tested for their activity on different PKC isoforms according to the following method. Assay is performed in a white with clear bottom 384-well microtiterplate with non-binding surface. The reaction mixture (25 μl) contains 1.5 μM of a tridecapeptide acceptor substrate that mimics the pseudo substrate sequence of PKC α with the Ala→Ser replacement, 10 μM ^33P-ATP, 10 mM Mg(NO3)2, 0.2 mM CaCl2, PKC at a protein concentration varying from 25 to 400 ng/ml (depending on the isotype used), lipid vesicles (containing 30 mol % phosphatidylserine, 5 mol % DAG and 65 mol % phosphatidylcholine) at a final lipid concentration of 0.5 mM, in 20 mM Tris-HCl buffer pH 7.4+0.1% BSA. Incubation is performed for 60 min at room temperature. Reaction is stopped by adding 50 μl of stop mix (100 mM EDTA, 200 μM ATP, 0.1% Triton X-100, 0.375 mg/well streptavidin-coated SPA beads in phosphate buffered saline w/o Ca, Mg). After 10 min incubation at room temperature, the suspension is spun down for 10 min at 300 g. Incorporated radioactivity is measured in a Trilux counter for 1 min. IC50 measurement is performed on a routine basis by incubating a serial dilution of inhibitor at concentrations ranging between 1-1000 μM. IC50 values are calculated from the graph by curve fitting with XL fit® software.

[2] = system: spleen cells from CBA and BALB/c mice; experiment: Allogeneic Mixed Lymphocyte Reaction (MLR); type: cell-based; settings: two-way MLR, CBA and BALB/c mouse spleen cells, four days incubation, read-out: IC50 MLR (3H-thymidine incorporation, proliferation)
Method: The two-way MLR is performed according to standard procedures (J. Immunol. Methods, 1973, 2, 279 and Meo T. et al., Immunological Methods, New York, Academic Press, 1979, 227-39). Briefly, spleen cells from CBA and BALB/c mice (1.6×10^5 cells from each strain per well in flat bottom tissue culture microtiter plates, 3.2×10^5 in total) are incubated in RPMI medium containing 10% FCS, 100 U/ml penicillin, 100 μg/ml streptomycin (Gibco BRL, Basel, Switzerland), 50 μM 2-mercaptoethanol (Fluka, Buchs, Switzerland) and serially diluted compounds. Seven three-fold dilution steps in duplicates per test compound are performed. After four days of incubation 1 μCi ^3H-thymidine is added. Cells are harvested after an additional five-hour incubation period, and incorporated ^3H-thymidine is determined according to standard procedures. Background values (low control) of the MLR are […].
[…] proliferation of BALB/c cells alone. Low controls are subtracted from all values. High controls without any sample are taken as 100% proliferation. […]

[3] = system: Jurkat cells transfected with a human interleukin-2 promoter/reporter gene construct; experiment: CD28 Costimulation Assay; type: cell-based; settings: stimulated transfected Jurkat cells, 5.5 hours, stimulus not specified for these values, read-out: IC50 CD28 costimulation assay (luciferase reporter)
Method: The assay is performed with Jurkat cells transfected with a human interleukin-2 promoter/reporter gene construct as described by Baumann G et al. in Transplant. Proc. 1992; 24:43-8, the β-galactosidase reporter gene being replaced by the luciferase gene (de Wet J., et al., Mol. Cell. Biol. 1987, 7(2), 725-737). Cells are stimulated by solid phase-coupled antibodies or phorbol myristate acetate (PMA) and the Ca^++ ionophore ionomycin as follows. For antibody-mediated stimulation Microlite TM1 microtiter plates (Dynatech) are coated with 3 μg/ml goat anti-mouse IgG Fc antibodies (Jackson) in 55 μl phosphate-buffered saline (PBS) per well for three hours at RT. Plates are blocked after removing the antibodies by incubation with 2% bovine serum albumin (BSA) in PBS (300 μl per well) for 2 hours at RT. […] After incubation for 5.5 hours at 37° C. in 5% CO2, the level of luciferase is determined by bioluminescence measurement. […] Luciferase activity is assessed with a bioluminescence reader (Labsystem, Helsinki, Finland) after automatic addition of 50 μl per well luciferase reaction buffer containing 20 mM Tricine, 1.07 mM (MgCO3)4Mg(OH)2×5H2O, 2.67 mM MgSO4, 0.1 mM EDTA, 33.3 mM DTT, 270 μM coenzyme A, 470 μM luciferin (Chemie Brunschwig AG), 530 μM ATP, pH 7.8. […] The inhibition obtained in the presence of a test compound is calculated as percent inhibition of the high control. […]

[4] = molecular target: T1, Human recombinant PKCα (Homo sapiens, UniProt P17252); experiment: Protein Kinase Cα Assay; type: biochemical; settings: 10 μM 33P-ATP, 60 min room temperature
T1 construct: purchased Oxford Biomedical Research

Sequence of Human recombinant PKCθ (Q04759 whole entry): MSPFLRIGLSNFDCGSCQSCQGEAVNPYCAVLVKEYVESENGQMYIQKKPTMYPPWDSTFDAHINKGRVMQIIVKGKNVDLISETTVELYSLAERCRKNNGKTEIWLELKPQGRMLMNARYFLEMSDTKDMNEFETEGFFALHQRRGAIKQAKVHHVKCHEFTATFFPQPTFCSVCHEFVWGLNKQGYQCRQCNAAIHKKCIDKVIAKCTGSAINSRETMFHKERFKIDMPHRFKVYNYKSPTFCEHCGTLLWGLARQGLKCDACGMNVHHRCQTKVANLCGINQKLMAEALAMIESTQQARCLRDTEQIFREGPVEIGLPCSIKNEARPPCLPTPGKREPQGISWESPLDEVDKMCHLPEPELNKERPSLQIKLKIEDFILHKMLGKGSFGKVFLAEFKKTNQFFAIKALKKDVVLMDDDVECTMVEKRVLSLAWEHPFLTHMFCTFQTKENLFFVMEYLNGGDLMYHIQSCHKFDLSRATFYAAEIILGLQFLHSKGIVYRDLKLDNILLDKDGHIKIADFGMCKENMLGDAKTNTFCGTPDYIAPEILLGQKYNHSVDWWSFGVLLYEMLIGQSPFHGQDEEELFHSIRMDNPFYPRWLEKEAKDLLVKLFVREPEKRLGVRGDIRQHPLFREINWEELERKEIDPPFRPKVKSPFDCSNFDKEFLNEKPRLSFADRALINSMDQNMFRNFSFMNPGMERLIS

SMILES | IC50 [1] [nM] | IC50 [2] [nM] | IC50 [3] [nM] | IC50 [4] [nM]
CN1CCN(c2ccc([N+](=O)[O-])c(C3=C(c4c[nH]c5ccccc45)C(=O)NC3=O)c2)CC1 [Example 1, 3-(1H-indol-3-yl)-4-[5-(4-methyl-piperazin-1-yl)-2-nitro-phenyl]-pyrrole-2,5-dione] | 8.9 | 17.5 | 25.5 | 2.6
Cc1cccc2c(C3=C(c4cc(N5CCN(C)CC5)ccc4[N+](=O)[O-])C(=O)NC3=O)c[nH]c12 [Example 4] | 10.2 | 24 | 17 | 2.9
